Data taken from patent US8841254B2, “Method for treatment of anxiety” (Howard Florey Institute of Experimental Physiology and …, priority 2001, dated 2014).

How the values were obtained:
[1] = system: goat anti-H2 relaxin antibody; assay: Antibody crossreactivity radioimmunoassay (displacement of 125I-labeled H2 relaxin); assay type: binding; conditions: FIG. 4
Experimental: The ability of well characterized human relaxin antibodies to recognize H3 relaxin was tested in comparison to H1 and H2 relaxins by radioimmunoassay. Briefly, goat anti-H2 relaxin (Lucas et al (1989) J. Endocrinol. 120, 449-57) was coated onto 96 well ELISA plates (Disposable Products, Adelaide, Australia) at a dilution of 1:1000 with 0.05M sodium carbonate buffer at 4° C. overnight. After washing twice with PBS-T (phosphate buffered saline; 0.05% Tween 20, pH 7.4) dilutions of human relaxin peptides dissolved in 50 μl of assay buffer (1% BSA in PBS-T) were added together with 50,000 cpm ^125I-labeled relaxin, in 50 μl of assay buffer. H2 relaxin was ^125I-labeled and purified by HPLC (Palejwala et al (1998) Endocrinology 139, 1208-1212). After an overnight incubation at 4° C. the plates were washed twice with PBS-T. The antibody-bound-^125I-labeled H2 relaxin was collected by the addition of 1M NaOH and decanted into tubes for counting on a Packard 5010 gamma counter (Canberra Packard). Experiments were performed at least twice and similar results obtained. Data was plotted as the mean±SEM from one representative experiment performed in triplicate and plotted using PRISM.

[2] = molecular target: T1, human relaxin receptors (THP-1 cells) (Homo sapiens, UniProt Q9HBX9); assay: THP-1 cell bioassay (cAMP production); assay type: cell-based; conditions: doses up to 1 μM
T1 construct: induce cAMP production in the human monocytic cell line (THP-1); endogenous in cells; host or cells: THP-1 (human monocytic cell line)
T1 sequence (Q9HBX9 1-757): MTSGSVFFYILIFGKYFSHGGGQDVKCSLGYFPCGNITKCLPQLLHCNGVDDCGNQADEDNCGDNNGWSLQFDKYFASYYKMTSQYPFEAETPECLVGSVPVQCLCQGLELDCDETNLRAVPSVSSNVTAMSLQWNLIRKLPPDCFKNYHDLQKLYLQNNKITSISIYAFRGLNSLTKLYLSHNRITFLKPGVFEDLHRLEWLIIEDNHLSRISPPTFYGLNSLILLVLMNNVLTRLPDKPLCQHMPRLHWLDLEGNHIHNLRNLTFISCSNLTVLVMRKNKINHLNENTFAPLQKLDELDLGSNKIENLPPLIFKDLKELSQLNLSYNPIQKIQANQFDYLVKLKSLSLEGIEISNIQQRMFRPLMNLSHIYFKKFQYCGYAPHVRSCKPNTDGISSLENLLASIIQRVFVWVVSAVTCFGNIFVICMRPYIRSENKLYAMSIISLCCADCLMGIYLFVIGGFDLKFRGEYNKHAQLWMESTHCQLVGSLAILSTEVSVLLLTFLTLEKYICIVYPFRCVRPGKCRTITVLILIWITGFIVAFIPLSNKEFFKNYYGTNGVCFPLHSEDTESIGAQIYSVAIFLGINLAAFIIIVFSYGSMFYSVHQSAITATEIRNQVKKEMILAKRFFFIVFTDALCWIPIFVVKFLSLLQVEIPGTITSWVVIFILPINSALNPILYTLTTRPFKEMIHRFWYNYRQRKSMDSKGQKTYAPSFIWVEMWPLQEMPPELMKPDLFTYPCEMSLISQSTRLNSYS
Experimental: Biol. Chem. 271, 27936-27941), with the following modifications; […] The plate was then briefly centrifuged, the media removed and the cells resuspended in lysis buffer. cAMP levels were measured in the lysates using the cAMP Biotrak EIA system (Amersham International, Aylesbury, UK). […] Data represent the mean±SEM of three experiments performed in quadruplicate, and are plotted using PRISM (Graphpad Inc., San Diego, Calif.).

[3] = molecular target: T2, relaxin binding sites in THP-1 cells (Homo sapiens, UniProt Q9HBX9); assay: THP-1 cell binding assay (competition for 33P-labeled H2 relaxin (B33))
T2 construct: induce cAMP production in the human monocytic cell line (THP-1); endogenous in cells; host or cells: THP-1 (human monocytic cell line)
T2 sequence (Q9HBX9 1-757): T1 sequence (Q9HBX9 1-757)
Experimental: THP-1 cells were spun down and resuspended in binding buffer (20 mM HEPES, 50 mM NaCl, 1.5 mM CaCl2, 1% BSA, 0.1 mg/ml lysine, 0.01% […], pH 7.5) (Parsell et al (1996) J. Biol. Chem. 271, 27936-27941) to give 2×10^6 cells/well in a 96-well plate. The cells were incubated in binding buffer with ^33P-labeled H2 (B33) relaxin (100 pM: labeled as previously described (Tan et al (1999) Br. J. Pharmacol. 127, 91-98) at 25° C. for 90 min in the absence or presence of increasing concentrations of unlabeled H1, H2 and H3 relaxin ([…]). Non-specific binding was defined with H2 relaxin (1 μM). Cells were harvested using a Packard 96-well plate cell harvester and Whatman GF/C glass fibre filters treated with 0.5% polyethylenimine. The filters were washed three times with modified binding buffer (20 mM HEPES, 50 mM NaCl, 1.5 mM CaCl2), dried in a 37° C. oven, and the radioactivity counted by liquid scintillation spectrometry (TopCount™, Canberra Packard, Australia).

| Compound | ability to displace 125I-labeled H2 relaxin binding to the anti-H2 relaxin antibody [1] | ability to stimulate cAMP responses [2] | Ki [3] |
| --- | --- | --- | --- |
| H2 relaxin: recombinant H2 relaxin, a gift from the Connetics Corporation | able to displace |  |  |
| bovine insulin [bINSL] |  | inability |  |
| hINSL3: Human INSL3 synthesized using the same methodology used for ovine INSL3 (chain 1 AAATNPARYCCLSGCTQQDLLTLCPY; chain 2 PTPEMREKLCGHHFVRALVRVCGGPRWSTEA) |  | inability |  |
| CC[C@H](C)[C@@H]1NC(=O)[C@H](Cc2ccccc2)NC(=O)[C@H](CCC(=O)O)NC(=O)[C@H](CCCNC(=N)N)NC(=O)CNC(=O)[C@@H](NC(=O)[C@H](CC(C)C)NC(=O)[C@H](CCCNC(=N)N)NC(=O)[C@@H](NC(=O)CNC(=O)[C@H](Cc2ccc(O)cc2)NC(=O)[C@@H]2CCCN2C(=O)[C@H](C)NC(=O)[C@H](C)NC(=O)[C@@H](N)CCCNC(=N)N)C(C)C)CSSC[C@@H]2NC(=O)[C@@H](NC(=O)[C@H](CO)NC(=O)[C@H](CO)NC(=O)[C@H](CO)NC(=O)[C@H](CC(C)C)NC(=O)CNC(=O)[C@H](C)NC(=O)[C@H](CC(C)C)NC(=O)[C@@H](NC(=O)[C@@H](N)CC(=O)O)C(C)C)CSSC[C@H](NC(=O)CNC(=O)[C@H](Cc3c[nH]c4ccccc34)NC(=O)[C@H](CCCCN)NC2=O)C(=O)N[C@@H](CO)C(=O)N[C@@H](CCCCN)C(=O)N[C@@H](CO)C(=O)N[C@@H](CCC(=O)O)C(=O)N[C@@H]([C@@H](C)CC)C(=O)N[C@@H](CO)C(=O)N[C@@H](CO)C(=O)N[C@@H](CC(C)C)C(=O)N[C@H](C(N)=O)CSSC[C@@H](C(=O)NCC(=O)NCC(=O)N[C@@H](CO)C(=O)N[C@@H](CCCNC(=N)N)C(=O)N[C@@H](Cc2c[nH]c3ccccc23)C(N)=O)NC(=O)[C@H]([C@@H](C)O)NC(=O)[C@H](Cc2ccccc2)NC(=O)[C@H]([C@@H](C)CC)NC(=O)[C@H](C(C)C)NC(=O)[C@H](C)NC(=O)[C@H](CCCNC(=N)N)NC1=O [H3 relaxin, Human Relaxin H3 [hR]x-3 A (1-24) Amide-B (1-27) Amide] | poor cross reactivity |  | 31.6 nM |
